Source: patent US20260207578A1, “COMPOUND BASED ON SULFUR/OXYGEN SUBSTITUTED GLUTARIMIDE-BASED ISOINDOLINONE SKELETON AND USE THEREOF” (Gluetacs Therapeutics (Shanghai) Co., LTD., priority 2022, published 2026)

Assays:
[1] = target: T1, human Cereblon WT GST-tagged protein (Homo sapiens, UniProt Q96SW2); assay: CRBN-binding affinity, HTRF (CEREBLON BINDING kit); details: displacement of Thalidomide-Re reagent, 3 hours at room temperature
T1 construct: purchased CISBIO 64BDCRBNPEH
Procedure: The CEREBLON BINDING kits (specification: 10,000 tests; product number: Catalog #64BDCRBNPEH; CISBIO company) was used to determine the CRBN binding ability of the compounds to be tested through a HTRF method (homogeneous time-resolved fluorescence). The specific methods are as follows: • 1. […] Then, 2.5 μL of human Cereblon WT GST-tagged protein solution was added to each well. Finally, 5 μL of the thoroughly mixed Thalidomide-Re reagent and GST Eu antibody working solution were added to each of the aforementioned wells. […] The blank control wells were sequentially added with 2.5 μL of diluent #9 (1×) solution, 2.5 μL of PROTAC binding buffer, and 5 μL of thoroughly mixed Thalidomide-Re reagent and GST Eu antibody working solution. • 4.
OD 620 nmcompound is the absorbance value of each well of the compounds to be tested of the present disclosure at an emission wavelength of 620 nm. […] OD 620 nmcontrol is the absorbance value of the blank control well at an emission wavelength of 620 nm. […] OD 620 nmStd0 is the absorbance value of the solvent control well at an emission wavelength of 620 nm.

CK1α = target: T2, CK1α (Homo sapiens, UniProt P48729+Q96SW2); assay: Western-blot assay, substrate protein in hPBMCs; format: cell-based; details: hPBMC cells, 24 hours, tested at 50 nM and 500 nM, table does not say which
T2 construct: endogenous in cells; host or cells: human PBMCs (Milecell Biotechnologies)
T2 sequence (P48729 whole entry): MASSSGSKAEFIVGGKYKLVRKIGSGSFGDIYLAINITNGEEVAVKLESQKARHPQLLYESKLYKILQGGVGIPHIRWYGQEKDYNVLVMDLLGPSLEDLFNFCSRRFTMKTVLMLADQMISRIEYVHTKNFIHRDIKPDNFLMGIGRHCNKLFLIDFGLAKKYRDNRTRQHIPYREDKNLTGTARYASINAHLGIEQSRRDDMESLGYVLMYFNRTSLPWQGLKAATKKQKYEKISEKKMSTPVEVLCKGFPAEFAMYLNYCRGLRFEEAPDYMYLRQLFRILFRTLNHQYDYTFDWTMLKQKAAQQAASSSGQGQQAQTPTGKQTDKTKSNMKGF
T2 sequence (Q96SW2 whole entry): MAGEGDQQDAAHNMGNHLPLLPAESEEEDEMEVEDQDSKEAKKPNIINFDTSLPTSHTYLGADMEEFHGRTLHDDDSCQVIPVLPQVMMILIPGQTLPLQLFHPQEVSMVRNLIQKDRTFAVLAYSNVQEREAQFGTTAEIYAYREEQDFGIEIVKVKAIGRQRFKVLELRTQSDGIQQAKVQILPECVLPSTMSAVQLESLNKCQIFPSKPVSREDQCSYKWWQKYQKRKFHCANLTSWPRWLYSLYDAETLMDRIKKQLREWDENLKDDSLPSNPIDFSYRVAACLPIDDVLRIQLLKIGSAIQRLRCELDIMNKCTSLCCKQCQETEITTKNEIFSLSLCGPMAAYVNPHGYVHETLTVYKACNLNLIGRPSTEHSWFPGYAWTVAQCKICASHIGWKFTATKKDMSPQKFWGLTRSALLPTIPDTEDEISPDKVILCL
T2 sequence (Q16531 whole entry partner): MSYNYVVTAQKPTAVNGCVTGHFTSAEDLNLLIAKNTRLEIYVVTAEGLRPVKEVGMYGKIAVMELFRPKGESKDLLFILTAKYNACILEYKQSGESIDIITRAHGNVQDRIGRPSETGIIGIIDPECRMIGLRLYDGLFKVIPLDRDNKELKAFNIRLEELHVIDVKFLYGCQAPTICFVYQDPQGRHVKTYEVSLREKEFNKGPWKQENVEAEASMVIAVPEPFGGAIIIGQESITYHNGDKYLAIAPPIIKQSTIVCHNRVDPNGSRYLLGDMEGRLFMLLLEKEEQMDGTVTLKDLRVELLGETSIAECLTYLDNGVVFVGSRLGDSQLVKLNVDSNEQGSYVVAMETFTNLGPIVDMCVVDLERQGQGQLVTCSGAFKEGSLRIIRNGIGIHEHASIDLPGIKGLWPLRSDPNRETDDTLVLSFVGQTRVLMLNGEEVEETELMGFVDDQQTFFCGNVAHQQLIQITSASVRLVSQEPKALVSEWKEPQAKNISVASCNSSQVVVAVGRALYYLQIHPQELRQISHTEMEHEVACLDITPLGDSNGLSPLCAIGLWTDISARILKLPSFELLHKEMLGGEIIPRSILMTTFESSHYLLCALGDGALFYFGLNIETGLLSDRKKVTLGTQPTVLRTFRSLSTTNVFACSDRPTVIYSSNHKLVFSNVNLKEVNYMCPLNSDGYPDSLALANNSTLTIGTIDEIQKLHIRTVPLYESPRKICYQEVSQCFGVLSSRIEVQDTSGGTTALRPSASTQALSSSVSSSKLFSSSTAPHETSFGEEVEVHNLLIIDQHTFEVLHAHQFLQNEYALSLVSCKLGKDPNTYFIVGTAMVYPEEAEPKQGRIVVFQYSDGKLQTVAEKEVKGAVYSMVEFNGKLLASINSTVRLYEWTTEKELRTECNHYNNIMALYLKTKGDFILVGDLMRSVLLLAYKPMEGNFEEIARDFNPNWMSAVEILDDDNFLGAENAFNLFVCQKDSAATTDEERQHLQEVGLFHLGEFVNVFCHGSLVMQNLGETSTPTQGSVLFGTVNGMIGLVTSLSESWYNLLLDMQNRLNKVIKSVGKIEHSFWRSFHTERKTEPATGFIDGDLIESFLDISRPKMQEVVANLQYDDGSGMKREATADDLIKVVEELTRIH
Procedure: (§1) The effect of the compounds of the present disclosure on the expression of target proteins in cells was detected using conventional Western blot analysis.
(§2) Human peripheral blood mononuclear cells (hPBMCs) at a density of 1×10^6 cells/mL were thawed according to the PBMC Recovery Protocol (Milecell Biotechnologies Inc, Shanghai).
(§3) After 24 hours of compounds treatment, cells were harvested and lysed in RIPA protein lysate containing phosphatase inhibitors on ice for 30-60 min, followed by centrifugation. The supernatant was aspirated as the extracted total cell protein. The protein concentration of the supernatant was determined using the conventional BCA (Bicinchoninic Acid) assay. The supernatant was then mixed with 4× SDS sample loading buffer, denatured at 95° C. for 5 minutes, and then subjected to SDS-PAGE electrophoresis on a polyacrylamide gel. Proteins were then transferred to a nitrocellulose (NC) membrane, blocked at room temperature for 1-2 h, and processed for antibody incubation and detection according to the manufacturer's instructions (Cell Signaling Technology).
(§4) Half-Maximal Degradation Concentration value (the drug concentration required for degrading proteins by 50%, abbreviated as DC50) reads method: comparing the grayscale values of Western blot bands from drug-treated samples with those from blank DMSO-treated controls, and identifying the drug concentration range at which the grayscale value is half that of the DMSO-treated control bands.
(§5) DC50 values can be calculated using ImageJ software to measure grayscale values of Western blot bands from drug-treated samples. The concentration-response curve is fitted to estimate the drug concentration corresponding to half the grayscale value.
(§6) Target protein remaining (%) refers to the percentage of target protein remaining in hPBMC cells after treatment with protein degrader compounds.
(§7) Calculation method for protein remaining (%): Use ImageJ software to measure grayscale values of Western blot bands from drug (protein degrader)-treated samples. The grayscale value of drug-treated bands is divided by that of internal control protein bands, and the resulting quotient is normalized to obtain the relative percentage of remaining target protein after protein degrader treatment.
(§8) Target protein degradation rate (%)=100%−target protein remaining (%).

IKZF2 = target: T3, IKZF2 (Homo sapiens, UniProt Q96SW2+Q9UKS7); assay: Western-blot assay, substrate protein in hPBMCs; format: cell-based; details: hPBMC cells, 24 hours, tested at 50 nM and 500 nM, table does not say which
T3 construct: endogenous in cells; host or cells: human PBMCs (Milecell Biotechnologies)
T3 sequence (Q9UKS7 whole entry): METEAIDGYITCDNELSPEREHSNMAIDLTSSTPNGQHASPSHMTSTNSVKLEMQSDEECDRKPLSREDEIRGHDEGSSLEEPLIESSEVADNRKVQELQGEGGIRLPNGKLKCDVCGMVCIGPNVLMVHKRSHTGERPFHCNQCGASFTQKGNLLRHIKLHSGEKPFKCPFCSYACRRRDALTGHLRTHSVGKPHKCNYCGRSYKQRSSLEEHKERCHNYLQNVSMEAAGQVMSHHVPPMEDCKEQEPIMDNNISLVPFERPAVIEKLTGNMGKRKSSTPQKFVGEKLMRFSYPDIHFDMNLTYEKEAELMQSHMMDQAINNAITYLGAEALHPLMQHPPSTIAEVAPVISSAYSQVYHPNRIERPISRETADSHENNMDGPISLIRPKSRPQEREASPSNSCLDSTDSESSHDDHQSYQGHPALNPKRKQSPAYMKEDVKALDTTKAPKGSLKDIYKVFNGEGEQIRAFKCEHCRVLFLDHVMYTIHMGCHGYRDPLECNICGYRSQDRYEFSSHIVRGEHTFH
T3 sequence (Q96SW2 whole entry): as the sequence (Q96SW2 whole entry) above
T3 sequence (Q16531 whole entry partner): as the sequence (Q16531 whole entry partner) above
Procedure: as §1, §2, §3, §4, §5, §6, §7, §8

GSPT1 = target: T4, GSPT1 (Homo sapiens, UniProt P15170+Q96SW2); assay: Western-blot assay, substrate protein in hPBMCs; format: cell-based; details: hPBMC cells, 24 hours, tested at 50 nM and 500 nM, table does not say which
T4 construct: endogenous in cells; host or cells: human PBMCs (Milecell Biotechnologies)
T4 sequence (P15170 whole entry): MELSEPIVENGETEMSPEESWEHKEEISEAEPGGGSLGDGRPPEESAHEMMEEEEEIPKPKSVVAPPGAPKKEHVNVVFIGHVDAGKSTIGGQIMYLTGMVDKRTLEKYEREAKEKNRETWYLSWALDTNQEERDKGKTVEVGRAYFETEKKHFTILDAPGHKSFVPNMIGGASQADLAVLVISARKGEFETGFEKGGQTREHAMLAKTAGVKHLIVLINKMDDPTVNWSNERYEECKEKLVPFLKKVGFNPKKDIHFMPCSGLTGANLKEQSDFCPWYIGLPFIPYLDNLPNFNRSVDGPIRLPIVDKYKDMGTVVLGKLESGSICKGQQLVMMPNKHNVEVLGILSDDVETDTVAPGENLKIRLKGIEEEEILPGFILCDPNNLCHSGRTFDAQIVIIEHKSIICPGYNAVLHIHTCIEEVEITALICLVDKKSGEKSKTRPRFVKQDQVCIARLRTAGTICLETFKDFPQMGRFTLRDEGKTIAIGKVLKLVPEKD
T4 sequence (Q96SW2 whole entry): as the sequence (Q96SW2 whole entry) above
T4 sequence (Q16531 whole entry partner): as the sequence (Q16531 whole entry partner) above
Procedure: as §1, §2, §3, §4, §5, §6, §7, §8

Wee1 = target: T5, Wee1 (Homo sapiens, UniProt P30291+Q96SW2); assay: Western-blot assay, substrate protein in hPBMCs; format: cell-based; details: hPBMC cells, 24 hours, tested at 50 nM and 500 nM, table does not say which
T5 construct: endogenous in cells; host or cells: human PBMCs (Milecell Biotechnologies)
T5 sequence (P30291 whole entry): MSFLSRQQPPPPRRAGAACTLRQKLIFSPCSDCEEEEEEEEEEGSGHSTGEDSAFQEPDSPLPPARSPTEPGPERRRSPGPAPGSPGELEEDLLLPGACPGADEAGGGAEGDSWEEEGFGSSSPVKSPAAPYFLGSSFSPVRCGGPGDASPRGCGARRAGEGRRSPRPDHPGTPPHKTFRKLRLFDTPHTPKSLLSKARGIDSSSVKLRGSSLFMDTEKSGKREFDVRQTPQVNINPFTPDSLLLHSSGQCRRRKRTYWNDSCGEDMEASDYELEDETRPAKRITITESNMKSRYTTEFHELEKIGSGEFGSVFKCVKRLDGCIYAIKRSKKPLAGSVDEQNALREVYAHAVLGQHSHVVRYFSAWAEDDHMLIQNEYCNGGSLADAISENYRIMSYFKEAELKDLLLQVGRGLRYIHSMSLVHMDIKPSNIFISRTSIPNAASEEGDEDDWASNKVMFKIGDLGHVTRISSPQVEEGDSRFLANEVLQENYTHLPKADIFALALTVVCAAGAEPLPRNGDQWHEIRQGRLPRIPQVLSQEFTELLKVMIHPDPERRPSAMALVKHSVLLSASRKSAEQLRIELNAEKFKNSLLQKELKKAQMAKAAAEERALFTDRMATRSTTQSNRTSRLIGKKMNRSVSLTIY
T5 sequence (Q96SW2 whole entry): as the sequence (Q96SW2 whole entry) above
T5 sequence (Q16531 whole entry partner): as the sequence (Q16531 whole entry partner) above
Procedure: as §1, §2, §3, §4, §5, §6, §7, §8

T1 sequence (Q96SW2 whole entry): as the sequence (Q96SW2 whole entry) above

Row | IC50 [1] | SMILES | substrate protein remaining % (CK1α) | substrate protein remaining % (IKZF2) | substrate protein remaining % (GSPT1) | substrate protein remaining % (Wee1)
1 | 1000 to 1900 nM | O=C1CCC(N2Cc3cc(SC4CCCNCC4)ccc3C2=O)C(=O)N1 (stereo not shown) [GT-06995, 3-(5-(azepan-4-ylthio)-1-oxoisoindolin-2-yl)piperidine-2,6-dione] | A (0%≤ substrate protein remaining % ≤80%) | – | – | –
2 | – | COC1(C)CCC(c2ccc(Cl)cc2)=C(CN2CC(Sc3ccc4c(c3)CN(C3CCC(=O)NC3=O)C4=O)C2)C1 (stereo not shown) [GT-07064, 3-(5-((1-((4′-chloro-4-methoxy-4-methyl-3,4,5,6-tetrahydro-[1,1′-biphenyl]-2-yl)methyl)azetidin-3-yl)thio)-1-oxoisoindolin-2-yl)piperidine-2,6-dione] | A (0%≤ substrate protein remaining % ≤80%) | – | – | –
3 | – | CC1(C)CCC(CN2CC(Oc3cccc4c3C(=O)N(C3CCC(=O)NC3=O)C4)C2)=C(c2ccc(Cl)cc2)C1 (stereo not shown) [GT-07063] | A (0%≤ substrate protein remaining % ≤80%) | – | – | –
4 | 1000 to 1900 nM | CC1(C)CCC(CN2CCCC(Sc3ccc4c(c3)CN(C3CCC(=O)NC3=O)C4=O)CC2)=C(c2ccc(Cl)cc2)C1 (stereo not shown) [GT-06641, 3-(5-((1-((4′-chloro-5,5-dimethyl-3,4,5,6-tetrahydro-[1,1′-biphenyl]-2-yl)methyl)azepan-4-yl)thio)-1-oxoisoindolin-2-yl)piperidine-2,6-dione] | – | A (0%≤ substrate protein remaining % ≤80%) | – | –
5 | 500 to 1000 nM | O=C1CCC(N2Cc3cc(OC4CN(C(c5ccc(F)cc5)c5ccc(F)cc5)C4)ccc3C2=O)C(=O)N1 (stereo not shown) [GT-06519, 3-(5-((1-(bis(4-fluorophenyl)methyl)azetidin-3-yl)oxy)-1-oxoisoindolin-2-yl)piperidine-2,6-dione] | A (0%≤ substrate protein remaining % ≤80%) | – | – | –
6 | – | COC1(C)CCC(c2ccc(Cl)cc2)=C(CN2CC(Oc3ccc4c(c3)CN(C3CCC(=O)NC3=O)C4=O)C2)C1 (stereo not shown) [GT-07065, 3-(5-((1-((4′-chloro-4-methoxy-4-methyl-3,4,5,6-tetrahydro-[1,1′-biphenyl]-2-yl)methyl)azetidin-3-yl)oxy)-1-oxoisoindolin-2-yl)piperidine-2,6-dione] | A (0%≤ substrate protein remaining % ≤80%) | – | – | –
7 | – | O=C1CCC(N2Cc3cc(OC4CCN(Cc5cccc(-c6ccc(Cl)cc6)c5)CC4)ccc3C2=O)C(=O)N1 (stereo not shown) [GT-06228, 3-(5-((1-((4′-chloro-[1,1′-biphenyl]-3-yl)methyl)piperidin-4-yl)oxy)-1-oxoisoindolin-2-yl)piperidine-2,6-dione] | A (0%≤ substrate protein remaining % ≤80%) | – | A (0%≤ substrate protein remaining % ≤80%) | A (0%≤ substrate protein remaining % ≤80%)
8 | 500 to 1000 nM | O=C1CCC(N2Cc3cc(SC4CN(C(c5ccccc5)c5ccccc5)C4)ccc3C2=O)C(=O)N1 (stereo not shown) [GT-06138, 3-(5-((1-benzhydrylazetidin-3-yl)thio)-1-oxoisoindolin-2-yl)piperidine-2,6-dione] | – | – | A (0%≤ substrate protein remaining % ≤80%) | A (0%≤ substrate protein remaining % ≤80%)
9 | 500 to 1000 nM | O=C1CCC(N2Cc3cc(OC4CN(Cc5ccc(-c6ccc(Cl)cc6)cc5)C4)ccc3C2=O)C(=O)N1 (stereo not shown) [GT-06230, 3-(5-((1-((4′-chloro-[1,1′-biphenyl]-4-yl)methyl)azetidin-3-yl)oxy)-1-oxoisoindolin-2-yl)piperidine-2,6-dione] | A (0%≤ substrate protein remaining % ≤80%) | – | A (0%≤ substrate protein remaining % ≤80%) | A (0%≤ substrate protein remaining % ≤80%)
10 | – | CC1(C)CCC(CN2CCC(Oc3ccc4c(c3)CN(C3CCC(=O)NC3=O)C4=O)CC2)=C(c2ccc(F)cc2)C1 (stereo not shown) [GT-07062, 3-(5-((1-((4′-fluoro-5,5-dimethyl-3,4,5,6-tetrahydro-[1,1′-biphenyl]-2-yl)methyl)piperidin-4-yl)oxy)-1-oxoisoindolin-2-yl)piperidine-2,6-dione] | A (0%≤ substrate protein remaining % ≤80%) | – | – | –
11 | < 500 nM | CC1(C)CCC(C(=O)N2C[C@H]3CC(Oc4ccc5c(c4)CN(C4CCC(=O)NC4=O)C5=O)C[C@H]3C2)=C(c2ccc(Cl)cc2)C1 (stereo partly drawn) [GT-07019, 3-(5-(((3aR,6aS)-2-(4′-chloro-5,5-dimethyl-3,4,5,6-tetrahydro-[1,1′-biphenyl]-2-carbonyl)octahydro-cyclopenta[c]pyrrol-5-yl)oxy)-1-oxoisoindolin-2-yl)piperidine-2,6-dione] | – | – | – | A (0%≤ substrate protein remaining % ≤80%)
12 | 1000 to 1900 nM | O=C1CCC(N2Cc3cc(OC4CC5(CCNCC5)C4)ccc3C2=O)C(=O)N1 (stereo not shown) [GT-07005, 3-(5-((7-azaspiro[3.5]nonan-2-yl)oxy)-1-oxoisoindolin-2-yl)piperidine-2,6-dione] | – | A (0%≤ substrate protein remaining % ≤80%) | – | –
13 | < 500 nM | O=C1CCC(N2Cc3cc(OC4CN(C(=O)c5ccccc5-c5ccc(Cl)cc5)C4)ccc3C2=O)C(=O)N1 (stereo not shown) [GT-06183, 3-(5-((1-(4′-chloro-[1,1′-biphenyl]-2-carbonyl)azetidin-3-yl)oxy)-1-oxoisoindolin-2-yl)piperidine-2,6-dione] | – | – | – | A (0%≤ substrate protein remaining % ≤80%)
14 | 500 to 1000 nM | CC1(C)CCC(C(=O)N2CCC3(CC2)CC(Oc2ccc4c(c2)CN(C2CCC(=O)NC2=O)C4=O)C3)=C(c2ccc(Cl)cc2)C1 (stereo not shown) [GT-07020, 3-(5-((7-(4′-chloro-5,5-dimethyl-3,4,5,6-tetrahydro-[1,1′-biphenyl]-2-carbonyl)-7-azaspiro[3.5]nonan-2-yl)oxy)-1-oxoisoindolin-2-yl)piperidine-2,6-dione] | – | – | A (0%≤ substrate protein remaining % ≤80%) | A (0%≤ substrate protein remaining % ≤80%)
15 | < 500 nM | O=C1CCC(N2Cc3cc(OC4CC5CN(Cc6ccccc6-c6ccc(Cl)cc6)CC5C4)ccc3C2=O)C(=O)N1 (stereo not shown) [GT-06953, 3-(5-((2-((4′-chloro-[1,1′-biphenyl]-2-yl)methyl)octahydrocyclopenta [c]pyrrol-5-yl)oxy)-1-oxoisoindolin-2-yl)piperidine-2,6-dione] | A (0%≤ substrate protein remaining % ≤80%) | – | – | A (0%≤ substrate protein remaining % ≤80%)
16 | < 500 nM | O=C1CCC(N2Cc3cc(OC4CCN(C(=O)c5ccccc5-c5ccc(Cl)cc5)C4)ccc3C2=O)C(=O)N1 (stereo not shown) [GT-06818, 3-(5-((1-(4′-chloro-[1,1′-biphenyl]-2-carbonyl)pyrrolidin-3-yl)oxy)-1-oxoisoindolin-2-yl)piperidine-2,6-dione] | A (0%≤ substrate protein remaining % ≤80%) | – | A (0%≤ substrate protein remaining % ≤80%) | A (0%≤ substrate protein remaining % ≤80%)
17 | – | CC1(C)CCC(CN2CCC(Oc3ccc4c(c3)CN(C3CCC(=O)NC3=O)C4=O)CC2)=C(c2ccc(Cl)cc2)C1 (stereo not shown) [GT-07061, 3-(5-((1-((4′-chloro-5,5-dimethyl-3,4,5,6-tetrahydro-[1,1′-biphenyl]-2-yl)methyl)piperidin-4-yl)oxy)-1-oxoisoindolin-2-yl)piperidine-2,6-dione] | A (0%≤ substrate protein remaining % ≤80%) | – | – | –
18 | – | O=C1CCC(N2Cc3cc(OC4CN(Cc5cccc(-c6ccc(Cl)cc6)c5)C4)ccc3C2=O)C(=O)N1 (stereo not shown) [GT-06227, 3-(5-((1-((4′-chloro-[1,1′-biphenyl]-3-yl)methyl)azetidin-3-yl)oxy)-1-oxoisoindolin-2-yl)piperidine-2,6-dione] | A (0%≤ substrate protein remaining % ≤80%) | – | A (0%≤ substrate protein remaining % ≤80%) | A (0%≤ substrate protein remaining % ≤80%)
